The values below come from US10227324B2 (Shanghai Haiyan Pharmaceutical Technology Co., Ltd., priority 2014, dated 2019).

Read-outs that look alike come from different tables or passages of the source.

Test [1] deals with T1, PI3K-γ kinase (p110γ) (Homo sapiens, UniProt P48736).
T1 construct: purchased Invitrogen PV4786
Kind of test: Determination of PI3K kinase activity (ADP Transcreener, fluorescence polarization). The class given is biochemical. Conditions: Table 1; ATP 10 μM; read-out: PI3K-γ/nM (IC50 of inhibitory activity against PI3K kinase). The essentials: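 Each 25 μL reaction held PI3K enzyme (p110α/p85α 3 ng, p110β/p85α 60 ng, p110δ/p85α 90 ng, or p110γ 100 ng), 10 μM ATP, 30 μM PIP2:PS and 2% DMSO, incubated 1 h at 25 °C. Compounds were tested in duplicate across a 3-fold series, 0.00046–1 μM as prepared. ADP was detected by Transcreener fluorescence polarization, quantified against an ADP/ATP standard curve, and IC50 fitted.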

The subject of test [2] is Akt phosphorylation (Ser473-p-Akt) in PC-3 cells. Briefly: Inhibition of p-Akt phosphorylation level in PC-3 cells (cell level fluorescence imaging). Particulars: Homo sapiens, read-out: PC-3 cell (IC50/nM). The class given is cell-based. On the procedure:
This experiment was performed by cell level fluorescence image processing method.
Triton X-100: 10% aqueous Triton X-100 solution (Sigma T8787-100 mL) was prepared, stored at 4° C. and diluted by 1:100 to give 0.1% Triton X-100 aqueous solution for use in the experiment.
Prodium Iodide (PI): 1 mg/mL (1.5 mM) PI (Sigma P4170) storage solution was prepared with PBS and stored at −25° C. in the dark. For use, the PI storage solution was diluted with PBS by 1:1000 to give a 1.5 μM solution and used in dark.
PC-3 cells in logarithmic growth phase were digested with 0.25% EDTA trypsin. 3000 cells/90 μL were seeded in a 96-well plate (BD 356692) and cultured at 37° C. and 5% CO2. After the cells adhered, 10 μL of the compound to be tested which was gradiently diluted 3 times (0.0046 to 10 μM, 8 concentration points, in duplicate) was added and incubated for 2 hours, followed by addition of 100 μL of 4% paraformaldehyde (DINGGUO AR-0211) and incubated at room temperature for 45 minutes. Then 100 μL of 0.1% Triton X-100 solution was added and incubated for another 30 minutes.
Triton X-100 solution was removed and the cells were rinsed with 200 μl of PBS twice (300 rpm vibration for 1 minute). The blocking solution (1% BSA solution in PBS) (Genview FA016-100G) was added and incubated at room temperature for 2 hours. The plate was rinsed with PBS once (300 rpm, 1 min) and 30 μL of Ser473-p-Akt antibody (cell signaling 4060L) diluted with 0.1% BSA was added and incubated overnight at 4° C. Ser473-p-Akt antibody was removed and the plate was rinsed with PBS twice (300 rpm, 1 minute). 35 μL of Alexa Flour 488 donkey anti-rabbit IgG (Invitrogen A21206) was added and incubated at room temperature for 1.5 hours. The plate was rinsed with PBS twice (300 rpm, 1 minute) and 35 μL of 1.5 μM PI was added and incubated at room temperature for 0.5 h. The fluorescence intensity was measured with Acumen eX3 (TTP LabTech).
10 μM BEZ235 (Selleck S1009) treatment group was negative control and DMSO treatment group was positive control. Inhibition ratio %=[1−(the mean value of the fluorescence intensity of the compound to be tested−the mean value of the fluorescence intensity of the negative control group)/(the mean value of the fluorescence intensity of the positive control group−the mean value of the fluorescence intensity of the negative control group)]×100%

The test system of test [3] is T47D cells. Kind of test: Cell inhibitory activity detected by MTT assay, T47D. The class given is cell-based. Conditions: Homo sapiens, T47D, 72 h, read-out: T47D cell (IC50/nM), cell growth inhibition. (In general: Tetrazolium assays rely on reduction of a dye to a coloured formazan, in cell work by metabolically active cells.)
The mark [4] stands for this setting: Akt phosphorylation in PC-3 cells, 2 hours incubation.

T1 sequence (P48736 whole entry): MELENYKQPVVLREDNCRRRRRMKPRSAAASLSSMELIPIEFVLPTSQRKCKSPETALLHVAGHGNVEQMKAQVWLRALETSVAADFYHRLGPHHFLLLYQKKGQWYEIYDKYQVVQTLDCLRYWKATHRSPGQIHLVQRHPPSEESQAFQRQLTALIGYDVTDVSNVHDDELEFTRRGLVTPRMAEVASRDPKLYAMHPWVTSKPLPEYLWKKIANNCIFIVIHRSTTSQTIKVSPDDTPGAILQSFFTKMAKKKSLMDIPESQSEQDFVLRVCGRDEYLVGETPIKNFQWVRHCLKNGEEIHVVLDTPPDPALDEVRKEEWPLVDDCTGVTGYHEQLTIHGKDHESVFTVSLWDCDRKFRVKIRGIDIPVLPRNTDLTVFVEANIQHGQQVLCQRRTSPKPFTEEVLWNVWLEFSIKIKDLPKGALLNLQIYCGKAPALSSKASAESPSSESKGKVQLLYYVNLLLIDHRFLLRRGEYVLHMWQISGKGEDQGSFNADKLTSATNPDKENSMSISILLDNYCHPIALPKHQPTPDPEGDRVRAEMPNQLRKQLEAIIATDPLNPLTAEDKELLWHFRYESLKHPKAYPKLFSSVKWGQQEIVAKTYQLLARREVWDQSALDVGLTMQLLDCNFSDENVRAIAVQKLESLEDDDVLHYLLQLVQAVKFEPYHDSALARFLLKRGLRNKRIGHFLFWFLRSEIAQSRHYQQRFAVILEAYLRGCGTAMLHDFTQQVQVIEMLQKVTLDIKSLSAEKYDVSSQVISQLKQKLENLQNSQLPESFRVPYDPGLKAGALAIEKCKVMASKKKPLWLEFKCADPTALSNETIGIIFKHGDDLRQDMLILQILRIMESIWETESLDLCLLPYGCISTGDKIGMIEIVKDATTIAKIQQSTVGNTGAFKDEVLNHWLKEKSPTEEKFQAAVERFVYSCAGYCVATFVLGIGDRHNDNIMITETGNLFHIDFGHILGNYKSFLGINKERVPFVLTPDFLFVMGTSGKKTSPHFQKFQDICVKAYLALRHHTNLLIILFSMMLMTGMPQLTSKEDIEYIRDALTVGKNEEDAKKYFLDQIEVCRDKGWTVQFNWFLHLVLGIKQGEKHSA

Take `CCS(=O)(=O)C1(c2cc(-c3cnc(N)cc3C(F)(F)F)nc(N3CCOC[C@@H]3C)n2)CCC1` [Compound S-23]: the IC50 in test [1] was 525 nM; in test [2] (setting [4]), 366 nM; in test [3] it was 20 nM.
On to `Nc1cc(Cl)c(-c2cc(C3(S(=O)(=O)c4ccccc4F)CC3)nc(N3CCOCC3)n2)cn1` [Compound S-66], for which the results for the IC50 in test [1], in test [2] (setting [4]) and in test [3] were 160 nM, 253 nM and 147 nM, respectively.
Regarding `C[C@H]1COCCN1c1nc(-c2cnc(N)cc2F)cc(C2(S(C)(=O)=O)CC2)n1` [Compound S-83], the IC50 was 204 nM in test [1], 196 nM in test [2] (setting [4]) and 30 nM in test [3].
With `C[C@H]1COCCN1c1nc(-c2cnc(N)nc2)cc(C2(S(C)(=O)=O)CCC2)n1` [Compound S-33], the IC50 stood at 112 nM in test [1], 109 nM in test [2] (setting [4]) and 120 nM in test [3].
For `Nc1cc(C(F)(F)F)c(-c2cc(C3(S(=O)(=O)c4ccccc4F)CC3)nc(N3CCOCC3)n2)cn1` [Compound S-58] the same measures were 121 nM, 367 nM and 129 nM.
With `CCS(=O)(=O)C1(c2cc(-c3cnc(N)cc3C(F)(F)F)nc(N3CCOCC3)n2)CCC1` [Compound S-49, 5-(6-(1-(ethylsulfonyl)cyclobutyl)-2-morpholinopyrimidin-4-yl)-4-(trifluoromethyl)pyridin-2-amine], the IC50 in test [1] turned out to be 2020 nM; in test [2] (setting [4]), 382 nM; in test [3], 208 nM.
For `C[C@H]1COCCN1c1nc(-c2cnc(N)cc2C(F)(F)F)cc(C2(S(C)(=O)=O)CCC2)n1` [Compound S-9] the same measures were 155 nM, 184 nM and 93 nM.
The corresponding values for `C[C@H]1COCCN1c1nc(-c2cnc(N)cc2C(F)(F)F)cc(C(C)(C)S(C)(=O)=O)n1` [Compound S-41] are 331 nM, 414 nM and 148 nM.
As for `CS(=O)(=O)C1(c2cc(-c3cnc(N)cc3C(F)(F)F)nc(N3CCOCC3)n2)CCC1` [Compound S-4], the values for the IC50 in test [1], in test [2] (setting [4]) and in test [3] were 354 nM, 248 nM and 124 nM, respectively.
As to `CC(C)S(=O)(=O)C1(c2cc(-c3cnc(N)cc3F)nc(N3CCOCC3)n2)CC1` [Compound S-86], the results for the IC50 in test [1], in test [2] (setting [4]) and in test [3] were 192 nM, 240 nM and 69 nM, respectively.
For `CC(C)S(=O)(=O)C1(c2cc(-c3cnc(N)cc3C(F)(F)F)nc(N3CCOCC3)n2)CC1` [Compound S-18] the same measures were 957 nM, 430 nM and 160 nM.
For `CC(C)(c1cc(-c2cnc(N)cc2Cl)nc(N2CCOCC2)n1)S(C)(=O)=O` [Compound S-38, 4-chloro-5-(6-(2-(methylsulfonyl)prop-2-yl)-2-morpholinopyrimidin-4-yl)pyridin-2-amine] the same measures were 369 nM, 332 nM and 244 nM.
`CC(C)S(=O)(=O)C1(c2cc(-c3cnc(N)cc3C(F)(F)F)nc(N3CCOC[C@@H]3C)n2)CCC1` [Compound S-13, (S)-5-(6-(1-(isopropylsulfonyl)cyclobutyl)-2-(3-methylmorpholino)pyrimidin-4-yl)-4-(trifluoromethyl)pyridin-2-amine]: the values for the IC50 in test [1], in test [2] (setting [4]) and in test [3] were > 3000 nM, 463 nM and 244 nM, respectively.
For the compound `C[C@@H]1COCCN1c1nc(-c2cnc(N)cc2Cl)cc(C(C)(C)S(C)(=O)=O)n1` [Compound S-67], the results for the IC50 in test [1], in test [2] (setting [4]) and in test [3] were 113 nM, 187 nM and 88 nM, respectively.
Turning to `Nc1cc(C(F)(F)F)c(-c2cc(C3(S(=O)(=O)c4ccccc4)CCC3)nc(N3CCOCC3)n2)cn1` [Compound S-20], the IC50 turned out to be 1160 nM in test [1] and 332 nM in test [3].
Turning to `C[C@H]1COCCN1c1nc(-c2cnc(N)nc2C(F)(F)F)cc(C2(S(C)(=O)=O)CCC2)n1` [Compound S-30], the IC50 in test [1] was 141 nM; in test [2] (setting [4]), 101 nM; in test [3], 100 nM.
In the case of `CS(=O)(=O)C1(c2cc(-c3cnc(N)cc3F)nc(N3CCOCC3)n2)CC1` [Compound S-82], the IC50 was 116 nM in test [1], 369 nM in test [2] (setting [4]) and 62 nM in test [3].
For `CCS(=O)(=O)C1(c2cc(-c3cnc(N)cc3F)nc(N3CCOCC3)n2)CC1` [Compound S-85] the same measures were 244 nM, 161 nM and 63 nM.
With `CS(=O)(=O)C1(c2cc(-c3cnc(N)cc3Cl)nc(N3CCOCC3)n2)CC1` [Compound S-37, 4-chloro-5-(6-(1-(methylsulfonyl)cyclopropyl)-2-morpholinopyrimidin-4-yl)pyridin-2-amine], the results for the IC50 in test [1], in test [2] (setting [4]) and in test [3] were 114 nM, 198 nM and 202 nM, respectively.
On to `COC(C)(C)c1cc(-c2cnc(N)cc2C(F)(F)F)nc(N2CCOCC2)n1` [Compound S-71, 5-(6-(2-methoxypropan-2-yl)-2-morpholinopyrimidin-4-yl)-4-(trifluoromethyl) pyridin-2-amine], for which the IC50 in test [1] is 1030 nM; in test [2] (PC-3, 2 h) it was 555 nM; in test [3], 165 nM.
Turning to `CS(=O)(=O)C1(c2cc(-c3cnc(N)nc3C(F)(F)F)nc(N3CCOCC3)n2)CC1` [Compound S-46], the values for the IC50 in test [1], in test [2] (setting [4]) and in test [3] were 96 nM, 131 nM and 137 nM, respectively.
For `CS(=O)(=O)C(F)(F)c1cc(-c2cnc(N)cc2Cl)nc(N2CCOCC2)n1` [Compound S-54, 4-chloro-5-(6-(difluoro(methylsulfonyl)methyl)-2-morpholinopyrimidin-4-yl)pyridin-2-amine] the same measures were 199 nM, 488 nM and 255 nM.
For `COC(C)(C)c1cc(-c2cnc(N)cc2Cl)nc(N2CCOC[C@@H]2C)n1` [Compound S-75] the same measures were 654 nM, 385 nM and 249 nM.
The corresponding values for `CS(=O)(=O)C1(c2cc(-c3cnc(N)cc3C(F)(F)F)nc(N3CCOCC3)n2)CCCC1` [Compound S-10] are 592 nM, 384 nM and 218 nM.
Take `C[C@H]1COCCN1c1nc(-c2cnc(N)cc2Cl)cc(C2(S(C)(=O)=O)CCC2)n1` [Compound S-31]: the IC50 in test [1] is 148 nM; in test [2] (setting [4]) it was 126 nM; in test [3] it was 73 nM.
Turning to `C[C@H]1COCCN1c1nc(-c2cnc(N)cc2F)cc(C(C)(C)S(C)(=O)=O)n1` [Compound S-84], the values for the IC50 in test [1], in test [2] (setting [4]) and in test [3] were 219 nM, 121 nM and 33 nM, respectively.
The corresponding values for `CC(C)S(=O)(=O)C1(c2cc(-c3cnc(N)cc3C(F)(F)F)nc(N3CCOCC3)n2)CCC1` [Compound S-19] are > 3000 nM, 575 nM and 178 nM.
Consider `C[C@H]1COCCN1c1nc(-c2ccc(N)nc2)cc(C2(S(C)(=O)=O)CCC2)n1` [Compound S-32], for which the figures for the IC50 in test [1], in test [2] (setting [4]) and in test [3] were 923 nM, 74 nM and 95 nM, respectively.
The corresponding values for `COC(C)(C)c1cc(-c2cnc(N)cc2Cl)nc(N2CCOCC2)n1` [Compound S-76] are 228 nM, 531 nM and 289 nM.
